# Assay results: the supplement of paper PMC10307832
# Columns and labels:
# Assay in all cases: relative viability (nuclei count vs DMSO), 5 days (fraction); higher = more cells survive
# [1] = compound: CC1=C(CC(=O)O)c2cc(F)ccc2/C1=C\c1ccc([S+](C)[O-])cc1 [Sulindac]
# Procedure, shortened: (§1)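 Lung cancer cell lines received five library-drug doses (not always all listed) spaced by √10, pinned on vehicle-anchored 1536-well plates after an overnight stay at 37 °C. Five days later, with no medium change, nuclei were Hoechst-stained, imaged at 4× and counted with MetaXpress. Viability is treated-well nuclei relative to vehicle-well nuclei, as a median across plates. Passing plates had control CV below 25% and at least one doubling.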
# [2] = compound: CN[C@@H]1C[C@H]2O[C@@](C)([C@@H]1OC)n1c3ccccc3c3c4c(c5c6ccccc6n2c5c31)C(=O)NC4 [Staurosporine]
# Procedure, shortened: as §1
# [3] = compound: O=c1[nH]cc(F)c(=O)[nH]1 [5-Fluorouracil]
# Procedure, shortened: as §1
# [4] = compound: CN[C@@H]1C[C@H]2O[C@@](C)([C@@H]1OC)n1c3ccccc3c3c4c(c5c6ccccc6n2c5c31)C(=O)NC4 [Staurosporine] + Cc1nc(Nc2ncc(C(=O)Nc3c(C)cccc3Cl)s2)cc(N2CCN(CCO)CC2)n1 [Dasatinib] (partner 0.075 µM)
# Procedure, shortened: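 Relative viability divides the nuclei count in treated wells by that in vehicle wells. Lung cancer cell lines were seeded in 1536-well plates, dosed by pin tool the next day, and fixed and stained after 5 days in one step with final 0.05% Triton X-100, 1% formaldehyde and 1 ug/ml Hoechst. Dosing was a single drug or a fixed anchor-drug dose plus five library-drug doses (not always all listed) in √10 steps, and values are medians of duplicate plates imaged at 4×.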
Cell Line,relative viability ([1]; 0.08 µM),relative viability ([1]; 0.253 µM),relative viability ([1]; 0.8 µM),relative viability ([1]; 2.53 µM),relative viability ([1]; 8 µM),relative viability ([2]; 0.005 µM),relative viability ([2]; 0.01581 µM),relative viability ([2]; 0.05 µM),relative viability ([2]; 0.1581 µM),relative viability ([2]; 0.5 µM),relative viability ([3]; 0.02 µM),relative viability ([3]; 0.2 µM),relative viability ([3]; 0.6325 µM),relative viability ([3]; 2 µM),relative viability ([4]; first compound 0.005 µM),relative viability ([4]; first compound 0.01581 µM),relative viability ([4]; first compound 0.05 µM),relative viability ([4]; first compound 0.1581 µM),relative viability ([4]; first compound 0.5 µM)
NCI-H441,1.34,1.25,0.78,1.09,1.37,0.889,0.275,0.266,0.18,0.129,0.887,0.866,0.591,0.385,0.705,0.326,0.572,0.163,0.082
NCI-H460,1.29,1.06,0.906,0.976,1.06,0.963,0.762,0.824,0.0553,0.0329,0.99,0.72,0.165,0.0713,0.575,0.27,0.375,0.0523,0.009
NCI-H520,1.16,1.08,0.891,0.957,1.06,1.14,0.706,0.698,0.272,0.163,0.923,1.06,0.73,0.516,0.278,0.251,0.215,0.176,0.171
NCI-H522,0.911,1.19,0.834,0.912,1.14,1,0.686,0.782,0.501,0.437,1.03,1,0.83,0.855,1.08,–,0.743,0.497,0.527
NCI-H596,0.975,1.03,0.846,1.02,1.04,–,0.54,0.792,0.204,0.151,1.01,0.981,0.718,0.439,0.7,0.467,0.276,0.226,0.183
NCI-H647,1.32,1.15,0.791,0.898,1.11,0.546,0.317,0.295,0.0837,0.059,1,1.11,0.842,0.623,0.0983,0.0707,0.0669,0.073,0.0532
NCI-H650,1.1,1.04,0.91,0.849,1.27,0.63,0.321,0.236,0.229,0.252,0.904,0.648,0.411,0.381,0.284,0.264,0.271,0.229,0.223
NCI-H661,1.13,1.05,0.989,1,0.965,1.02,0.722,0.555,0.364,0.238,0.998,1.04,0.954,0.992,0.67,0.349,0.381,0.347,0.123
NCI-H727,0.963,0.923,0.741,0.9,1.01,0.736,0.554,0.381,0.345,0.22,0.925,1.19,0.846,0.774,0.47,0.579,0.363,0.235,0.184
NCI-H838,1.05,1.04,0.879,0.94,1.07,0.447,0.315,0.221,0.189,0.126,0.879,1.03,0.597,0.387,0.267,0.203,0.225,0.177,0.178
NCI-H1355,1.02,1.06,0.873,0.971,1.08,0.856,0.238,0.363,0.197,0.159,0.925,0.877,0.438,0.309,0.516,0.166,0.202,0.164,0.152
NCI-H1395,1.11,0.968,0.938,0.804,1.14,0.609,0.364,0.488,0.331,0.253,0.899,1.03,0.937,0.826,0.377,0.306,0.383,0.299,0.247
NCI-H1437,1.14,1.02,0.857,1.01,1.17,0.918,0.705,0.704,0.306,0.153,0.626,0.289,0.25,0.216,0.391,0.208,0.285,0.173,0.134
NCI-H1563,0.898,0.973,0.936,0.967,1.14,0.724,0.592,0.542,0.547,–,0.952,1.01,1,0.815,0.43,0.434,0.411,0.247,0.433
